Measurements: BindingDB's records for doi:10.1016/s0960-894x(00)00493-5 (Wyeth-Ayerst Research, 2000)

Target: Proto-oncogene tyrosine-protein kinase Src (Homo sapiens, UniProt P12931)
Assay: Kinase inhibition Assay
Details: pH 7.5; 30 °C
Procedure: Src kinase activity was measured in an ELISA format. IC50 is the inhibitor concentration which inhibits 50% of kinase activity that catalyzes the transfer of the terminal phosphate from ATP to the substrate.

Proto-oncogene tyrosine-protein kinase Src, sequence (P12931 2-536 limits assumed): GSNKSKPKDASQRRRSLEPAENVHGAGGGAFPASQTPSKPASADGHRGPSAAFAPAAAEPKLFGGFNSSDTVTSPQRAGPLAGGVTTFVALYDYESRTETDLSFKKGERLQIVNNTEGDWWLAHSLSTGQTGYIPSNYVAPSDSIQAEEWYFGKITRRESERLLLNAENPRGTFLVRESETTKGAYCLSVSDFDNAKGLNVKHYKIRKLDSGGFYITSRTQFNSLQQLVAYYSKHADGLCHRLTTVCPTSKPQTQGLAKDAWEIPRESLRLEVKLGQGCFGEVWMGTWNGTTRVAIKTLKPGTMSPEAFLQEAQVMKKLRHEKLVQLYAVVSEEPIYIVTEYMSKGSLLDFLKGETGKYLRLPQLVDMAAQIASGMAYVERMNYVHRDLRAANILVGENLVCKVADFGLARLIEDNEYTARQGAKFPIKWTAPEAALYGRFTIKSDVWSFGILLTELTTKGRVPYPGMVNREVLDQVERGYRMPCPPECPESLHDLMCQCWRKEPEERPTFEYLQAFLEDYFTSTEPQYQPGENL

IC50: > 10 µM
Compound: COc1cc2ncc(C#N)c(NCc3cc(OC)c(OC)c(OC)c3)c2cc1OC [6,7-dimethoxy-4-{[(3,4,5-trimethoxyphenyl)methyl]amino}quinoline-3-carbonitrile]
